Data published in ChEMBL document CHEMBL1201862, “PubChem BioAssay data set” (2004).
The source made the active and inactive calls. Cut-off read from the data, not from the text of the source, for most assays here: actives have a measured AC50 and inactives only a lower limit.

Assays:
[1] = growth inhibition of yeast DHODH-expressing 3D7 parasites – SYBR Green, dry powder samples, dose response (AID 1159570); assay type: functional, cell-based;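 note: parasite growth measured after 72 hours of compound exposure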
[2] = OV-90 cell viability loss – plate reader, dry powder, SA8, PAX8 inhibitor project, dose response (AID 743149); assay type: functional, cell-based
[3] = COV362 cell viability loss – plate reader, dry powder, SA12, cytotoxicity control for PAX8 inhibitor project, dose response (AID 743144); assay type: functional, cell-based
[4] = P. falciparum Dd2 growth inhibitors, dose response, SYBR Green, cherry-picked samples (AID 1159567); assay type: functional, cell-based
[5] = toxicity to human HepG2 hepatoma cells – cell-based, plate reader, dry powder samples, cytotoxicity control, dose response (AID 1159569); assay type: functional;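 note: inhibitor potency with signal falling toward the positive control level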
[6] = OVCAR4 cell viability loss – plate reader, dry powder, SA11, cytotoxicity control for PAX8 inhibitor project, dose response (AID 743150); assay type: functional, cell-based; details: OVCAR-4
[7] = Dd2 malaria parasite growth inhibition potency – SYBR Green, dry powder samples, dose response (AID 1159566); assay type: functional, cell-based;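 note: potency for growth inhibition with lower SYBR green DNA signal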
[8] = growth inhibition of PfATP4-mutant resistant parasites – NITD609-resistant line, SYBR Green, dry powder, dose response (AID 1159571); assay type: functional, cell-based;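 note: parasites synchronized at ring stage by sorbitol before testing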
[9] = PAX8-dependent cell viability loss – plate reader, dry powder, dose response (AID 743049); assay type: functional, cell-based
[10] = toxicity to human hepatoma HepG2 cells – cell-based, cherry-picked samples, cytotoxicity control, dose response (AID 1159577); assay type: functional
[11] = PAX5 cellular inhibition readout – cell-based, plate reader, dry powder samples, selectivity assay for PAX8 inhibitor project, dose response (AID 743047); assay type: functional;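 note: HEK293 cells carrying a Pax5 driven CD19 promoter luciferase reporter; potency of inhibitors that lower reporter luminescence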
Paired box protein Pax-8 = Paired box protein Pax-8 (Homo sapiens, UniProt Q06710); assay: PAX8 transcriptional activity inhibition in RMG-I – RMG-I cells, luciferase, cherry-pick, dose response (AID 687027); assay type: functional, cell-based;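 note: luciferase reporter driven by Pax8 target thyroperoxidase promoter measured by SteadyGlo luminescence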
[12] = inhibitors acting on PAX2 in cells – cell-based, plate reader, dry powder samples, selectivity assay for PAX8 inhibitor project, dose response (AID 743048); assay type: functional;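 note: HEK293 cells carrying a WT1 promoter luciferase reporter driven by expressed Pax2; potency is for inhibition of Pax2 driven reporter signal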
[13] = COV434 cell viability loss – plate reader, dry powder, SA7, cytotoxicity control for PAX8 inhibitor project, dose response (AID 743145); assay type: functional, cell-based
[14] = OVCAR-3 cell viability loss – plate reader, dry powder samples, PAX8 inhibitor project, dose response (AID 743044); assay type: functional, cell-based
[15] = anti-trypanosomal activity in BESM host cells – imaging, CA-I/72 strain, bovine embryo skeletal muscle, dry powder, dose response (AID 651885); assay type: functional, cell-based
[16] = Trypanosoma cruzi replication inhibitors in host cells – cell-based, plate reader, dry powder samples, dose response (AID 651845); assay type: functional
[17] = T. cruzi growth inhibition in host cells, dose response, cell-based, plate reader, dry powder, set 2 (AID 652275); assay type: functional
[18] = viability loss in CEM21 cells – cell-based, plate reader, dry powder, cytotoxicity control, dose response (AID 687026); assay type: functional
[19] = blockers of FN fibrillogenesis by fibroblasts – AH1F cells, Alexa488-FN fluorescence, cherry-picks, dose response (AID 1035475); assay type: functional, cell-based
[20] = viability loss in HEK293 kidney cells – cell-based, cherry-picks, set 5, cytotoxicity control, dose response (AID 1053117); assay type: functional
[21] = Late stage assay provider results from the probe development effort to identify selective inhibitors of heat shock protein 90 (HSP90): Absorbance-based cell proliferation assay in SKBR3 cells.; assay type: functional; details: SK-BR-3
[22] = Late stage assay provider results from the probe development effort to identify selective inhibitors of heat shock protein 90 (HSP90): Absorbance-based cell proliferation assay in MCF7 cells.; assay type: functional

Paired box protein Pax-8, sequence (Q06710 whole entry): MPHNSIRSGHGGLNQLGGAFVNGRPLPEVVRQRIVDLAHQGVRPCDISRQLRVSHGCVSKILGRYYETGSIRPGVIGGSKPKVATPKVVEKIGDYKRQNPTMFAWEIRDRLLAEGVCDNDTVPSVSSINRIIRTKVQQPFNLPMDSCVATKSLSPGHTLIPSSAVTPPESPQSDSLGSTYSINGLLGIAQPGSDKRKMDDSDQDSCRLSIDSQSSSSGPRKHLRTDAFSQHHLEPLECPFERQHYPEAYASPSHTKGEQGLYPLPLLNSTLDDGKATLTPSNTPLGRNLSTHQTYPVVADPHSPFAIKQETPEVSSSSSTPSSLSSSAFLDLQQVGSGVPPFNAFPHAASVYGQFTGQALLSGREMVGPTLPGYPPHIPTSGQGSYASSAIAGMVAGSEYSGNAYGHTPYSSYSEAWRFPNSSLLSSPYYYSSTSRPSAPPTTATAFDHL

## COc1cccc(C#Cc2ccc([C@H]3[C@@H](CO)N(C(=O)C4CCCCC4)[C@H]3C#N)cc2)c1
[1]
  AC50: 1.86 µM (active)
[2]
  AC50: 24.7 µM (active)
[3]
  AC50: 23.2 µM (active)
[4]
  AC50: 0.833 µM (active)
[5]
  AC50: 46.6 µM (active)
[6]
  AC50: 7.73 µM (active)
[7]
  AC50: 1.21 µM (active)
[8]
  AC50: 2.15 µM (active)
[9]
  AC50: 8.27 µM (active)
[10]
  AC50: 36.2 µM (active)
[11]
  AC50: 11.9 µM (active)
Paired box protein Pax-8
  AC50: 3.39 µM (active)
[12]
  AC50: 16.8 µM (active)
[13]
  AC50: 17.4 µM (active)
[14]
  AC50: 46.6 µM (active)

## CCCn1ncc(CN(C)C[C@H]2Oc3c(NC(=O)c4ccncc4)cccc3C(=O)N(C(C)C)C[C@@H]2C)c1C
[15]
  IC50: 2.92 µM (inconclusive)
[16]
  AC50: 0.521 µM (active)
[17]
  AC50: 0.521 µM (active)

## CCOc1ccc(S(=O)(=O)NC(C)c2ccncc2)cc1 (stereo not drawn)
[18]
  AC50: > 70 µM (inactive)

## C[C@@H]1CN([C@@H](C)CO)C(=O)c2cc(NC(=O)C3CCCCC3)ccc2O[C@@H]1CN(C)Cc1ccc(-c2ccccc2)cc1
[19]
  AC50: > 70 µM (inactive)
[20]
  AC50: > 52 µM (inactive)

## O=C1OC(=O)/C(=C\NCCc2ccccc2)C=C1Br
[21]
  IC50: 3.7 µM (active)
[22]
  IC50: 2.1 µM (active)
